Data as given in patent US20140178315A1, “Topical Compositions Comprising Ionic Fluids” (Arch Chemicals, Inc., priority 2012, published 2014).

Details: 3 g salt added to 21 g anhydrous betaine glycolate ionic fluid; heated at 105° C. for 2 hours; remained a viscous fluid after cooling to room temperature

C[N+](C)(C)CC(=O)O.O=c1cc(CO)occ1[O-] [betaine kojiate]
Solubility of betaine kojiate in betaine glycolate ionic fluid (appearance of the mixture): formed a clear fluid
